Legend:
Details in all cases: 72 h
Caco-2 [1] = assay: cell viability relative to DMSO; higher = less toxic
Calu-3 [2] = assay: as above
HepG2 [3] = assay: as above
U2OS [4] = assay: as above
Vero E6 [5] = assay: as above
Calu-3 [6] = assay: relative viability EC50 (midpoint between 100% and the lowest measured viability); higher = less toxic
HepG2 [7] = assay: as above
U2OS [8] = assay: as above
Vero E6 [9] = assay: as above
Caco-2 [10] = assay: drug sensitivity score (DSS) for viability; higher = more toxic; extreme values may be limits of the assay
Calu-3 [11] = assay: as above
HepG2 [12] = assay: as above
U2OS [13] = assay: as above
Vero E6 [14] = assay: as above
Caco-2 [15] = assay: relative viability EC50 (midpoint between 100% and the lowest measured viability); higher = less toxic

| SMILES | cell viability (Caco-2 [1]; 1 nM) | cell viability (Caco-2 [1]; 10 nM) | cell viability (Caco-2 [1]; 100 nM) | cell viability (Caco-2 [1]; 1000 nM) | cell viability (Caco-2 [1]; 10000 nM) | cell viability (Calu-3 [2]; 1 nM) | cell viability (Calu-3 [2]; 10 nM) | cell viability (Calu-3 [2]; 100 nM) | cell viability (Calu-3 [2]; 1000 nM) | cell viability (Calu-3 [2]; 10000 nM) | cell viability (HepG2 [3]; 1 nM) | cell viability (HepG2 [3]; 10 nM) | cell viability (HepG2 [3]; 100 nM) | cell viability (HepG2 [3]; 1000 nM) | cell viability (HepG2 [3]; 10000 nM) | cell viability (U2OS [4]; 1 nM) | cell viability (U2OS [4]; 10 nM) | cell viability (U2OS [4]; 100 nM) | cell viability (U2OS [4]; 1000 nM) | cell viability (U2OS [4]; 10000 nM) | cell viability (Vero E6 [5]; 1 nM) | cell viability (Vero E6 [5]; 10 nM) | cell viability (Vero E6 [5]; 100 nM) | cell viability (Vero E6 [5]; 1000 nM) | cell viability (Vero E6 [5]; 10000 nM) | relative viability EC50 (Calu-3 [6]) | relative viability EC50 (HepG2 [7]) | relative viability EC50 (U2OS [8]) | relative viability EC50 (Vero E6 [9]) | drug sensitivity score (Caco-2 [10]) | drug sensitivity score (Calu-3 [11]) | drug sensitivity score (HepG2 [12]) | drug sensitivity score (U2OS [13]) | drug sensitivity score (Vero E6 [14]) | relative viability EC50 (Caco-2 [15]) |
| --- | --- | --- | --- | --- | --- | --- | --- | --- | --- | --- | --- | --- | --- | --- | --- | --- | --- | --- | --- | --- | --- | --- | --- | --- | --- | --- | --- | --- | --- | --- | --- | --- | --- | --- | --- |
| CCCc1cc(C(N)=S)ccn1 [protionamide] | 94.4% | 80.4% | 93.8% | 73.7% | 68.3% | 96.2% | 100% | 88.9% | 107% | 92.4% | 108% | 105% | 95.9% | 103% | 95.3% | 104% | 107% | 98.6% | 96% | 96.4% | 102% | 98.6% | 93.3% | 101% | 91.6% | > 10 µM | > 10 µM | > 10 µM | > 10 µM | 5.7 | 0 | 0 | 0 | 0 |  |
| CN(C)C(=N)NC(=N)N [metformin] | 106% | 95.7% | 90.2% | 104% | 109% | 103% | 103% | 85.6% | 101% | 89.1% | 93.4% | 96.7% | 97.2% | 94.3% | 93% |  |  |  |  |  | 93.6% | 102% | 103% | 103% | 102% | > 10 µM | > 10 µM |  | > 10 µM | 0 | 0 | 0 |  | 0 | > 10 µM |
| Cc1noc(C)c1-c1ccc(-c2cc(C(N)=O)c(NC(N)=O)s2)c(O[C@H]2CCNC2)c1 [AZD3264] | 95.7% | 100% | 100% | 103% | 106% | 97.4% | 95.7% | 103% | 101% | 105% | 114% | 97.6% | 99.8% | 101% | 99.4% |  |  |  |  |  | 102% | 104% | 105% | 97.4% | 103% | > 10 µM | > 10 µM |  | > 10 µM | 0 | 0 | 0 |  | 0 | > 10 µM |
| COc1cc(OC)cc(N(CCNC(C)C)c2ccc3ncc(-c4cnn(C)c4)nc3c2)c1 [erdafitinib] | 90.1% | 99.3% | 94% | 99.3% | 65.2% | 109% | 90.2% | 92.3% | 89.6% | 81.4% | 101% | 111% | 104% | 99.4% | 39.2% | 101% | 97.3% | 91.5% | 84% | 53.1% | 94% | 99% | 92% | 98.9% | 35.9% | > 10 µM | 3.09 µM |  | 3.04 µM | 1.7 | 1.3 | 3.4 | 4.1 | 3.6 |  |
| CN(C)c1ccc2c(c1)Sc1cc(N(C)C)ccc1N2 [leucomethylene-blue] | 95.2% | 99% | 102% | 94.1% | 23.1% | 101% | 102% | 102% | 109% | 9% | 93.1% | 93.2% | 93.6% | 76.4% | 7.7% | 99.5% | 94.1% | 97.2% | 99.6% | 56.9% | 95.8% | 97.1% | 93.9% | 85.2% | 45.9% | 3.65 µM | 1.53 µM |  | 1.55 µM | 5.2 | 4.4 | 8.7 | 2.2 | 4.9 | 2.54 µM |
| CC(=O)Nc1ccc(NC(=S)NC(=O)c2ccc(C(C)(C)C)cc2)cc1 [tenovin-1] | 94.7% | 91.4% | 106% | 100% | 88.7% | 108% | 95.1% | 95.8% | 90.9% | 77.2% | 113% | 89.6% | 104% | 56.8% | 42.4% | 95.6% | 96.8% | 96.2% | 103% | 98.3% | 99.9% | 98.8% | 105% | 67.8% | 61.7% | > 10 µM | 0.65 µM | > 10 µM |  | 0 | 1.3 | 8.2 | 0 | 5.6 | > 10 µM |
| CCOC(=O)c1cncn1[C@H](C)c1ccccc1 [etomidate] |  |  |  |  |  | 94.2% | 111% | 97.1% | 102% | 100% | 95% | 86.3% | 97.3% | 100% | 91.7% | 91.8% | 99.2% | 94.4% | 97.2% | 102% | 102% | 96.4% | 104% | 89.1% | 106% | > 10 µM | > 10 µM | > 10 µM | > 10 µM |  | 0 | 0 | 0 | 0 |  |

— the supplement of paper PMC13380429
